Experimental data from patent US4401604A, “Process for preparing thiosulfenamide derivatives of N-phosphonomethylglycine triesters” (Monsanto Company, priority 1981, dated 1983).

Tests used:
Assay type in all cases: in vivo
Sorghum = assay: Post-emergence herbicidal activity, greenhouse; settings: Table II, 4 WAT
From the text: (§1) A good grade of top soil is placed in aluminum pans having holes in the bottom and compacted to a depth of 0.95 to 1.27 cm. from the top of the pan. A predetermined number of seeds of each of several dicotyledonous and monocotyledonous annual plant species and/or vegetative propagules for the perennial plant species are placed on the soil and pressed into the soil surface. The seeds and/or vegetative propagules are covered with soil and leveled. The pans are then placed on a sand bench in the greenhouse and watered from below as needed. After the plants reach the desired age (two to three weeks), each pan except for the control pans is removed individually to a spraying chamber and sprayed by means of an atomizer operating at a positive air pressure of approximately 1.46 kg/cm^2 absolute. The atomizer contains 6 ml. of a solution or suspension of the chemical. In that 6 ml., is an amount of a cyclohexanone emulsifying agent mixture to give a spray solution or suspension which contains about 0.4% by weight of the emulsifier. The spray solution or suspension contains a sufficient amount of the candidate chemical in order to give application rates corresponding to those set forth in the tables. The spray solution is prepared by taking an aliquot of a 1.0% by weight stock solution or suspension of the candidate chemical in an organic solvent such as acetone or tetrahydrofuran or in water. The emulsifying agent employed is a mixture comprising 35 weight percent butylamine dodecylbenzene sulfonate and 65 weight percent of a tall oil ethylene oxide condensate having about 11 moles of ethylene oxide per mole of tall oil. The pans are returned to the greenhouse and watered as before and the injury to the plants as compared to the control is observed at approximately two and four weeks as indicated in the tables under WAT and the results recorded. In some instances, the two-week observations are omitted.
(§2) The post-emergence herbicidal activity index used in Table I is as follows:
(§3) The plant species utilized in these tests are identified by letter in accordance with the following legend: […]

Yellow Nutsedge [1] = assay: Post-emergence herbicidal activity, greenhouse; settings: Table I, 4 WAT
From the text: as §1, §2, §3

Barnyardgrass [2] = assay: Post-emergence herbicidal activity, greenhouse; settings: 4 WAT
From the text: as §1, §2, §3

Johnsongrass [3] = assay: Post-emergence herbicidal activity, greenhouse; settings: Table I, 4 WAT
From the text: as §1, §2, §3

Downy Brome [4] = assay: Post-emergence herbicidal activity, greenhouse; settings: 4 WAT
From the text: as §1, §2, §3

Smartweed = assay: Post-emergence herbicidal activity, greenhouse; settings: 4 WAT
From the text: as §1, §2, §3

Panicum Spp = assay: Post-emergence herbicidal activity, greenhouse; settings: Table II, 4 WAT
From the text: as §1, §2, §3

Rice = assay: Post-emergence herbicidal activity, greenhouse; settings: Table II, 4 WAT
From the text: as §1, §2, §3

Velvetleaf [5] = assay: Post-emergence herbicidal activity, greenhouse; settings: 4 WAT
From the text: as §1, §2, §3

Soybean = assay: Post-emergence herbicidal activity, greenhouse; settings: Table II, 4 WAT
From the text: as §1, §2, §3

Cocklebur [6] = assay: Post-emergence herbicidal activity, greenhouse; settings: 4 WAT
From the text: as §1, §2, §3

Sugar Beet = assay: Post-emergence herbicidal activity, greenhouse; settings: Table II, 4 WAT
From the text: as §1, §2, §3

Quackgrass [7] = assay: Post-emergence herbicidal activity, greenhouse; settings: Table I, 4 WAT
From the text: as §1, §2, §3

Wheat = assay: Post-emergence herbicidal activity, greenhouse; settings: Table II, 4 WAT
From the text: as §1, §2, §3

Lambsquarters [8] = assay: Post-emergence herbicidal activity, greenhouse; settings: 4 WAT
From the text: as §1, §2, §3

Wild Buckwheat = assay: Post-emergence herbicidal activity, greenhouse; settings: Table II, 4 WAT
From the text: as §1, §2, §3

Hemp Sesbania = assay: Post-emergence herbicidal activity, greenhouse; settings: Table II, 4 WAT
From the text: as §1, §2, §3

Morningglory [9] = assay: Post-emergence herbicidal activity, greenhouse; settings: 4 WAT
From the text: as §1, §2, §3

Crabgrass = assay: Post-emergence herbicidal activity, greenhouse; settings: Table II, 4 WAT
From the text: as §1, §2, §3

Canada Thistle = assay: Post-emergence herbicidal activity, greenhouse; settings: Table I, 4 WAT
From the text: as §1, §2, §3

Yellow Nutsedge [10] = assay: Pre-emergent herbicidal activity; settings: Table III; 11.2 kg/h; 2 WAT
From the text: (§4) A good grade of top soil is placed in aluminum pans and compacted to a depth of 0.95 to 1.27 cm. from the top of each pan. A predetermined number of seeds or vegetative propagules of each of several plant species are placed on top of the soil in each pan and then pressed down. Herbicidal compositions prepared as in the previous example are applied by admixture with or incorporation in the top layer of soil.
(§5) In this method, the soil required to cover the seeds and propagules is weighed and admixed with a herbicidal composition containing a known amount of the active ingredient (compound of this invention). The pans are then filled with the admixture and leveled. Watering is carried out by permitting the soil in the pans to absorb moisture through apertures in the pan bottoms. The seed and propagule containing pans are placed on a wet sand bench and maintained for approximately two weeks under ordinary conditions of sunlight and watering. At the end of this period, the number of emerged plants of each species is noted and compared to an untreated control.
(§6) The pre-emergent herbicidal activity index used below is based upon average percent control of each species as follows:
(§7) Plant species in the table are identified by the same code letters used in the previous example.

Barnyardgrass [11] = assay: Pre-emergent herbicidal activity; settings: Table III; 11.2 kg/h; 2 WAT
From the text: as §4, §5, §6, §7

Johnsongrass [12] = assay: Pre-emergent herbicidal activity; settings: Table III; 11.2 kg/h; 2 WAT
From the text: as §4, §5, §6, §7

Downy Brome [13] = assay: Pre-emergent herbicidal activity; settings: Table III; 11.2 kg/h; 2 WAT
From the text: as §4, §5, §6, §7

Velvetleaf [14] = assay: Pre-emergent herbicidal activity; settings: Table III; 11.2 kg/h; 2 WAT
From the text: as §4, §5, §6, §7

Cocklebur [15] = assay: Pre-emergent herbicidal activity; settings: Table III; 11.2 kg/h; 2 WAT
From the text: as §4, §5, §6, §7

Quackgrass [16] = assay: Pre-emergent herbicidal activity; settings: Table III; 11.2 kg/h; 2 WAT
From the text: as §4, §5, §6, §7

Lambsquarters [17] = assay: Pre-emergent herbicidal activity; settings: Table III; 11.2 kg/h; 2 WAT
From the text: as §4, §5, §6, §7

Morningglory [18] = assay: Pre-emergent herbicidal activity; settings: Table III; 11.2 kg/h; 2 WAT
From the text: as §4, §5, §6, §7

## CCOC(=O)CN(CP(=O)(Oc1ccc(OC)cc1)Oc1ccc(OC)cc1)SSC [VI, Glycine, N-[[bis(4-methoxyphenoxy)phosphinyl]methyl]-N-(methyldithio)-, ethyl ester]
Sorghum; 0.28 kg/h
  post-emergence herbicidal activity index: 0 (0- 24% control)
Sorghum; 1.12 kg/h
  post-emergence herbicidal activity index: 2 (50-74% control)
Sorghum; 5.6 kg/h
  post-emergence herbicidal activity index: 3 (75-99% control)
Yellow Nutsedge [1]; 5.6 kg/h
  post-emergence herbicidal activity index: 1 (25-49% control)
Yellow Nutsedge [1]; 11.2 kg/h
  post-emergence herbicidal activity index: 1 (25-49% control)
Barnyardgrass [2]; Table I, 5.6 kg/h
  post-emergence herbicidal activity index: 4 (100% control)
Barnyardgrass [2]; Table I, 11.2 kg/h
  post-emergence herbicidal activity index: 3 (75-99% control)
Barnyardgrass [2]; Table II, 0.28 kg/h
  post-emergence herbicidal activity index: 0 (0- 24% control)
Barnyardgrass [2]; Table II, 1.12 kg/h
  post-emergence herbicidal activity index: 3 (75-99% control)
Barnyardgrass [2]; Table II, 5.6 kg/h
  post-emergence herbicidal activity index: 4 (100% control)
Johnsongrass [3]; 5.6 kg/h
  post-emergence herbicidal activity index: 2 (50-74% control)
Johnsongrass [3]; 11.2 kg/h
  post-emergence herbicidal activity index: 3 (75-99% control)
Downy Brome [4]; Table I, 5.6 kg/h
  post-emergence herbicidal activity index: 2 (50-74% control)
Downy Brome [4]; Table I, 11.2 kg/h
  post-emergence herbicidal activity index: 3 (75-99% control)
Downy Brome [4]; Table II, 0.28 kg/h
  post-emergence herbicidal activity index: 0 (0- 24% control)
Downy Brome [4]; Table II, 1.12 kg/h
  post-emergence herbicidal activity index: 2 (50-74% control)
Downy Brome [4]; Table II, 5.6 kg/h
  post-emergence herbicidal activity index: 4 (100% control)
Smartweed; Table I, 5.6 kg/h
  post-emergence herbicidal activity index: 2 (50-74% control)
Smartweed; Table I, 11.2 kg/h
  post-emergence herbicidal activity index: 2 (50-74% control)
Smartweed; Table II, 0.28 kg/h
  post-emergence herbicidal activity index: 0 (0- 24% control)
Smartweed; Table II, 5.6 kg/h
  post-emergence herbicidal activity index: 4 (100% control)
Panicum Spp; 0.28 kg/h
  post-emergence herbicidal activity index: 0 (0- 24% control)
Panicum Spp; 1.12 kg/h
  post-emergence herbicidal activity index: 2 (50-74% control)
Panicum Spp; 5.6 kg/h
  post-emergence herbicidal activity index: 4 (100% control)
Rice; 0.28 kg/h
  post-emergence herbicidal activity index: 0 (0- 24% control)
Rice; 1.12 kg/h
  post-emergence herbicidal activity index: 0 (0- 24% control)
Rice; 5.6 kg/h
  post-emergence herbicidal activity index: 3 (75-99% control)
Velvetleaf [5]; Table I, 5.6 kg/h
  post-emergence herbicidal activity index: 1 (25-49% control)
Velvetleaf [5]; Table I, 11.2 kg/h
  post-emergence herbicidal activity index: 2 (50-74% control)
Velvetleaf [5]; Table II, 0.28 kg/h
  post-emergence herbicidal activity index: 0 (0- 24% control)
Velvetleaf [5]; Table II, 1.12 kg/h
  post-emergence herbicidal activity index: 1 (25-49% control)
Velvetleaf [5]; Table II, 5.6 kg/h
  post-emergence herbicidal activity index: 4 (100% control)
Soybean; 0.28 kg/h
  post-emergence herbicidal activity index: 0 (0- 24% control)
Soybean; 1.12 kg/h
  post-emergence herbicidal activity index: 1 (25-49% control)
Soybean; 5.6 kg/h
  post-emergence herbicidal activity index: 3 (75-99% control)
Cocklebur [6]; Table I, 5.6 kg/h
  post-emergence herbicidal activity index: 2 (50-74% control)
Cocklebur [6]; Table I, 11.2 kg/h
  post-emergence herbicidal activity index: 3 (75-99% control)
Cocklebur [6]; Table II, 0.28 kg/h
  post-emergence herbicidal activity index: 0 (0- 24% control)
Cocklebur [6]; Table II, 1.12 kg/h
  post-emergence herbicidal activity index: 3 (75-99% control)
Cocklebur [6]; Table II, 5.6 kg/h
  post-emergence herbicidal activity index: 4 (100% control)
Sugar Beet; 0.28 kg/h
  post-emergence herbicidal activity index: 0 (0- 24% control)
Sugar Beet; 1.12 kg/h
  post-emergence herbicidal activity index: 1 (25-49% control)
Sugar Beet; 5.6 kg/h
  post-emergence herbicidal activity index: 4 (100% control)
Quackgrass [7]; 5.6 kg/h
  post-emergence herbicidal activity index: 0 (0- 24% control)
Quackgrass [7]; 11.2 kg/h
  post-emergence herbicidal activity index: 1 (25-49% control)
Wheat; 0.28 kg/h
  post-emergence herbicidal activity index: 0 (0- 24% control)
Wheat; 1.12 kg/h
  post-emergence herbicidal activity index: 1 (25-49% control)
Wheat; 5.6 kg/h
  post-emergence herbicidal activity index: 3 (75-99% control)
Lambsquarters [8]; Table I, 5.6 kg/h
  post-emergence herbicidal activity index: 3 (75-99% control)
Lambsquarters [8]; Table I, 11.2 kg/h
  post-emergence herbicidal activity index: 3 (75-99% control)
Lambsquarters [8]; Table II, 0.28 kg/h
  post-emergence herbicidal activity index: 0 (0- 24% control)
Lambsquarters [8]; Table II, 1.12 kg/h
  post-emergence herbicidal activity index: 2 (50-74% control)
Lambsquarters [8]; Table II, 5.6 kg/h
  post-emergence herbicidal activity index: 4 (100% control)
Wild Buckwheat; 0.28 kg/h
  post-emergence herbicidal activity index: 0 (0- 24% control)
Wild Buckwheat; 1.12 kg/h
  post-emergence herbicidal activity index: 1 (25-49% control)
Wild Buckwheat; 5.6 kg/h
  post-emergence herbicidal activity index: 4 (100% control)
Hemp Sesbania; 0.28 kg/h
  post-emergence herbicidal activity index: 0 (0- 24% control)
Hemp Sesbania; 1.12 kg/h
  post-emergence herbicidal activity index: 0 (0- 24% control)
Hemp Sesbania; 5.6 kg/h
  post-emergence herbicidal activity index: 3 (75-99% control)
Morningglory [9]; Table I, 5.6 kg/h
  post-emergence herbicidal activity index: 2 (50-74% control)
Morningglory [9]; Table I, 11.2 kg/h
  post-emergence herbicidal activity index: 3 (75-99% control)
Morningglory [9]; Table II, 0.28 kg/h
  post-emergence herbicidal activity index: 0 (0- 24% control)
Morningglory [9]; Table II, 1.12 kg/h
  post-emergence herbicidal activity index: 2 (50-74% control)
Morningglory [9]; Table II, 5.6 kg/h
  post-emergence herbicidal activity index: 3 (75-99% control)
Crabgrass; 0.28 kg/h
  post-emergence herbicidal activity index: 0 (0- 24% control)
Crabgrass; 1.12 kg/h
  post-emergence herbicidal activity index: 4 (100% control)
Crabgrass; 5.6 kg/h
  post-emergence herbicidal activity index: 4 (100% control)
Canada Thistle; 5.6 kg/h
  post-emergence herbicidal activity index: 1 (25-49% control)
Canada Thistle; 11.2 kg/h
  post-emergence herbicidal activity index: 2 (50-74% control)
Yellow Nutsedge [10]
  pre-emergent herbicidal activity index: 0 (0-24% control)
Barnyardgrass [11]
  pre-emergent herbicidal activity index: 0 (0-24% control)
Johnsongrass [12]
  pre-emergent herbicidal activity index: 0 (0-24% control)
Downy Brome [13]
  pre-emergent herbicidal activity index: 0 (0-24% control)
Velvetleaf [14]
  pre-emergent herbicidal activity index: 0 (0-24% control)
Cocklebur [15]
  pre-emergent herbicidal activity index: 0 (0-24% control)
Quackgrass [16]
  pre-emergent herbicidal activity index: 0 (0-24% control)
Lambsquarters [17]
  pre-emergent herbicidal activity index: 0 (0-24% control)
Morningglory [18]
  pre-emergent herbicidal activity index: 0 (0-24% control)
